Patent EP4603105A1, “PHARMACEUTICAL COMPOSITION CONTAINING CYCLIC COMPOUND HAVING SELECTIVE KRAS INHIBITORY EFFECT AGAINST HRAS AND NRAS” (CHUGAI SEIYAKU KABUSHIKI KAISHA, priority 2022, dated 2024)

How the values were obtained:
[1] = target: GDP-bound NRAS wild-type protein (Homo sapiens, UniProt P01111); test: Binding to NRAS by surface plasmon resonance (SPR), KD and KD ratio to KRAS; settings: ratio of KD for GDP-bound NRAS wild-type protein to KD for KRAS
Method in brief: (§1)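 GDP-loaded biotinylated Avi-tag RAS proteins (E. coli-expressed) captured on a Biotin CAPture chip at ~100–300 RU; single-cycle kinetics at 30°C, 100 µL/min, 75 s injections of rising compound concentrations. HBS pH 7.4 running buffer with 1 mM DTT, 10 mM MgCl2, 10 µM GDP, 4% DMSO. KD from 1:1 binding fit.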

HRAS wild-type protein = HRAS wild-type protein (Homo sapiens, UniProt P01112); test: Binding to HRAS by surface plasmon resonance (SPR), KD and KD ratio to KRAS; settings: ratio of KD for HRAS wild-type protein to KD for KRAS
Method in brief: as §1

[2] = test system: human lung cancer strain NCI-H441; type: cell-based
Method in brief: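 Readout: […] after the ATP-based reagent. Compound: serial dilutions in dimethyl sulfoxide.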

Chain of HRAS wild-type protein (P01112 whole entry): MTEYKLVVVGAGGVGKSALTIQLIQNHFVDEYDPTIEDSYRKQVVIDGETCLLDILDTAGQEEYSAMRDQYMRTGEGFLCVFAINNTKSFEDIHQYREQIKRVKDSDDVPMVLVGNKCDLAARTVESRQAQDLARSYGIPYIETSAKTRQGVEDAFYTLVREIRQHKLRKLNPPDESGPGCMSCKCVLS
Chain of GDP-bound NRAS wild-type protein (P01111 whole entry): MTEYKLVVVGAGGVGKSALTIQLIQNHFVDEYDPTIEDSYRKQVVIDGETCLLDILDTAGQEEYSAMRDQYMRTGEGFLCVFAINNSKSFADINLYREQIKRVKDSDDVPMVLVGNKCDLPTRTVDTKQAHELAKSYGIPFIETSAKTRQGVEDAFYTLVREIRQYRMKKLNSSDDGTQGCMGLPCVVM

| SMILES | NRAS /KRAS [1] | HRAS /KRAS (HRAS wild-type protein) | IC50 [2] [nM] |
| --- | --- | --- | --- |
| CCCO[C@@H]1CCN2C(=O)[C@H](CCc3cc(F)c(C(F)(F)F)c(F)c3)NC(=O)CN(C)C(=O)[C@H](Cc3ccc(C(F)(F)F)cc3)N3CCCC[C@@H](C3=O)N(C)C(=O)CN(C)C(=O)[C@H]([C@@H](C)CC)NC(=O)[C@H](CC(C)C)N(C)C(=O)C[C@@H](C(=O)N3CCOCC3)N(C)C(=O)[C@H](C3CCCC3)N(C)C(=O)C3(CCC3)NC(=O)[C@H]12 [PP1080] | B (a compound having 3 or more and less than 10 is denoted as B) | B (a compound having 3 or more and less than 10 is denoted as B) | 39.2 |
| CC[C@H](C)[C@@H]1NC(=O)[C@H](CC(C)C)N(C)C(=O)C[C@@H](C(=O)N2CCOCC2)N(C)C(=O)[C@H](C2CCCC2)N(C)C(=O)C2(CCC2)NC(=O)[C@@H]2[C@H](OC)CCN2C(=O)[C@H](CCc2cc(F)c(C(F)(F)F)c(F)c2)NC(=O)CN(C)C(=O)[C@H](Cc2ccc(C(F)(F)F)cc2)N2CCCC[C@@H](C2=O)N(C)C(=O)CN(C)C1=O [PP1084] | C (A compound having a KD ratio of 0.1 or more and less than 3 is denoted as C) | B (a compound having 3 or more and less than 10 is denoted as B) | 83.9 |
| CC[C@H](C)[C@@H]1NC(=O)[C@H](CC(C)C)N(C)C(=O)C[C@@H](C(=O)N2CCOCC2)N(C)C(=O)[C@H](C2CCCC2)N(C)C(=O)C2(CCC2)NC(=O)[C@@H]2[C@H](OC)CCN2C(=O)[C@H](CCc2cc(F)c(C(F)(F)F)c(F)c2)NC(=O)CN(C)C(=O)[C@H](Cc2ccc(C(F)(F)F)cc2)N2CCCCC[C@@H](C2=O)N(C)C(=O)CN(C)C1=O [PP1085] | A (a compound having 10 or more and less than 20 is denoted as A) | A (a compound having 10 or more and less than 20 is denoted as A) | 590 |
| CCO[C@@H]1C[C@H]2C(=O)NC3(CCC3)C(=O)N(C)[C@@H](C3CCCCC3)C(=O)N(C)[C@H](C(=O)N(C)C)CC(=O)N(C)[C@@H](CC)C(=O)N[C@@H]([C@@H](C)CC)C(=O)N(C)CC(=O)N(C)[C@H]3C/C=C\CCN(C3=O)[C@@H](Cc3ccc(C(F)(F)F)cc3)C(=O)N(C)CC(=O)N[C@@H](CCc3cc(F)c(C(F)(F)F)c(F)c3)C(=O)N2C1 [PP1086] | AA (a compound having 20 or more is denoted as AA) | A (a compound having 10 or more and less than 20 is denoted as A) | 22.4 |
| CCO[C@@H]1C[C@H]2C(=O)NC3(CCC3)C(=O)N(C)[C@@H]([C@@H](C)CC)C(=O)N(C)[C@H](C(=O)N(C)C)CC(=O)N(C)[C@@H](CC)C(=O)N[C@@H]([C@@H](C)CC)C(=O)N(C)CC(=O)N(C)[C@H]3C/C=C\CCN(C3=O)[C@@H](Cc3ccc(C(F)(F)F)cc3)C(=O)N(C)CC(=O)N[C@@H](CCc3cc(F)c(C(F)(F)F)c(F)c3)C(=O)N2C1 [PP1087] | A (a compound having 10 or more and less than 20 is denoted as A) | A (a compound having 10 or more and less than 20 is denoted as A) | 40.4 |
| CCO[C@@H]1C[C@H]2C(=O)NC3(CCC3)C(=O)N(C)[C@@H](C(C)C)C(=O)N(C)[C@H](C(=O)N(C)C)CC(=O)N(C)[C@@H](CC)C(=O)N[C@@H]([C@@H](C)CC)C(=O)N(C)CC(=O)N(C)[C@H]3C/C=C\CCN(C3=O)[C@@H](Cc3ccc(C(F)(F)F)cc3)C(=O)N(C)CC(=O)N[C@@H](CCc3cc(F)c(C(F)(F)F)c(F)c3)C(=O)N2C1 [PP1088] | A (a compound having 10 or more and less than 20 is denoted as A) | A (a compound having 10 or more and less than 20 is denoted as A) | 195 |
| CCO[C@@H]1C[C@H]2C(=O)NC3(CCC3)C(=O)N(C)[C@@H](CC(C)C)C(=O)N(C)[C@H](C(=O)N(C)C)CC(=O)N(C)[C@@H](CC)C(=O)N[C@@H]([C@@H](C)CC)C(=O)N(C)CC(=O)N(C)[C@H]3C/C=C\CCN(C3=O)[C@@H](Cc3ccc(C(F)(F)F)cc3)C(=O)N(C)CC(=O)N[C@@H](CCc3cc(F)c(C(F)(F)F)c(F)c3)C(=O)N2C1 [PP1089] | AA (a compound having 20 or more is denoted as AA) | A (a compound having 10 or more and less than 20 is denoted as A) | 57.3 |
| CCO[C@@H]1C[C@H]2C(=O)NC3(CCC3)C(=O)N(C)[C@@H](C3CCCC3)C(=O)N(C)[C@H](C(=O)N3CCCC3)CC(=O)N(C)[C@@H](CC)C(=O)N[C@@H]([C@@H](C)CC)C(=O)N(C)CC(=O)N(C)[C@H]3C/C=C\CCN(C3=O)[C@@H](Cc3ccc(C(F)(F)F)cc3)C(=O)N(C)CC(=O)N[C@@H](CCc3cc(F)c(C(F)(F)F)c(F)c3)C(=O)N2C1 [PP1090] | AA (a compound having 20 or more is denoted as AA) | A (a compound having 10 or more and less than 20 is denoted as A) | 20.9 |
| CCO[C@@H]1C[C@H]2C(=O)NC3(CCC3)C(=O)N(C)[C@@H](C3CCCC3)C(=O)N(C)[C@H](C(=O)N3CCC3)CC(=O)N(C)[C@@H](CC)C(=O)N[C@@H]([C@@H](C)CC)C(=O)N(C)CC(=O)N(C)[C@H]3C/C=C\CCN(C3=O)[C@@H](Cc3ccc(C(F)(F)F)cc3)C(=O)N(C)CC(=O)N[C@@H](CCc3cc(F)c(C(F)(F)F)c(F)c3)C(=O)N2C1 [PP1091] | A (a compound having 10 or more and less than 20 is denoted as A) | B (a compound having 3 or more and less than 10 is denoted as B) | 17.9 |
| CCO[C@@H]1C[C@H]2C(=O)NC3(CCC3)C(=O)N(C)[C@@H](C3CCCC3)C(=O)N(C)[C@H](C(=O)N3CCOCC3)CC(=O)N(C)[C@@H](CC)C(=O)N[C@@H]([C@@H](C)CC)C(=O)N(C)CC(=O)N(C)[C@H]3C/C=C\CCN(C3=O)[C@@H](Cc3ccc(C(F)(F)F)cc3)C(=O)N(C)CC(=O)N[C@@H](CCc3cc(F)c(C(F)(F)F)c(F)c3)C(=O)N2C1 [PP1092] | A (a compound having 10 or more and less than 20 is denoted as A) | A (a compound having 10 or more and less than 20 is denoted as A) | 15.8 |
| CCO[C@@H]1C[C@H]2C(=O)NC3(CCC3)C(=O)N(C)[C@@H](C3CCCC3)C(=O)N[C@H](C(=O)N(C)C)CC(=O)N(C)[C@@H](CC)C(=O)N[C@@H]([C@@H](C)CC)C(=O)N(C)CC(=O)N(C)[C@H]3C/C=C\CCN(C3=O)[C@@H](Cc3ccc(C(F)(F)F)cc3)C(=O)N(C)CC(=O)N[C@@H](CCc3cc(F)c(C(F)(F)F)c(F)c3)C(=O)N2C1 [PP1094] | A (a compound having 10 or more and less than 20 is denoted as A) | B (a compound having 3 or more and less than 10 is denoted as B) | 778 |
| CCO[C@@H]1C[C@H]2C(=O)NC3(CCC3)C(=O)N(C)[C@@H](C3CCCC3)C(=O)N(C)[C@H](C)CC(=O)N(C)[C@@H](CC)C(=O)N[C@@H]([C@@H](C)CC)C(=O)N(C)CC(=O)N(C)[C@H]3C/C=C\CCN(C3=O)[C@@H](Cc3ccc(C(F)(F)F)cc3)C(=O)N(C)CC(=O)N[C@@H](CCc3cc(F)c(C(F)(F)F)c(F)c3)C(=O)N2C1 [PP1095] | B (a compound having 3 or more and less than 10 is denoted as B) | B (a compound having 3 or more and less than 10 is denoted as B) | 14.9 |
